Experimental data: article PMC6161027, “In Vitro Stimulation of Multidrug Resistance-Associated Protein 2 Function Is Not Reproduced In Vivo in Rats” (Pharmaceutics, 2018)
Where “and” joins values, the source holds several entries; their conditions need not be identical. Equal entries are not always repeated. Entries after “also recorded” stand apart in the source; their conditions may differ. Structures can show the parent of a compound that is named as a salt. Where two headings read alike, the source gives them in different places.

Tests used:
Mrp2 [1] = tested on: Mrp2; set-up: method as in PMID 15194559; details: rats ref 17; cited from earlier work
Mrp2 [2] = tested on: Mrp2; set-up: method as in PMID 27964938; details: in the presence of metformin, plasma exposure not affected ref 9; cited from earlier work
rat Mrp2 [3] = target: T1, rat Mrp2 (Rattus norvegicus, UniProt Q63120)
T1 sequence (Q63120 whole entry): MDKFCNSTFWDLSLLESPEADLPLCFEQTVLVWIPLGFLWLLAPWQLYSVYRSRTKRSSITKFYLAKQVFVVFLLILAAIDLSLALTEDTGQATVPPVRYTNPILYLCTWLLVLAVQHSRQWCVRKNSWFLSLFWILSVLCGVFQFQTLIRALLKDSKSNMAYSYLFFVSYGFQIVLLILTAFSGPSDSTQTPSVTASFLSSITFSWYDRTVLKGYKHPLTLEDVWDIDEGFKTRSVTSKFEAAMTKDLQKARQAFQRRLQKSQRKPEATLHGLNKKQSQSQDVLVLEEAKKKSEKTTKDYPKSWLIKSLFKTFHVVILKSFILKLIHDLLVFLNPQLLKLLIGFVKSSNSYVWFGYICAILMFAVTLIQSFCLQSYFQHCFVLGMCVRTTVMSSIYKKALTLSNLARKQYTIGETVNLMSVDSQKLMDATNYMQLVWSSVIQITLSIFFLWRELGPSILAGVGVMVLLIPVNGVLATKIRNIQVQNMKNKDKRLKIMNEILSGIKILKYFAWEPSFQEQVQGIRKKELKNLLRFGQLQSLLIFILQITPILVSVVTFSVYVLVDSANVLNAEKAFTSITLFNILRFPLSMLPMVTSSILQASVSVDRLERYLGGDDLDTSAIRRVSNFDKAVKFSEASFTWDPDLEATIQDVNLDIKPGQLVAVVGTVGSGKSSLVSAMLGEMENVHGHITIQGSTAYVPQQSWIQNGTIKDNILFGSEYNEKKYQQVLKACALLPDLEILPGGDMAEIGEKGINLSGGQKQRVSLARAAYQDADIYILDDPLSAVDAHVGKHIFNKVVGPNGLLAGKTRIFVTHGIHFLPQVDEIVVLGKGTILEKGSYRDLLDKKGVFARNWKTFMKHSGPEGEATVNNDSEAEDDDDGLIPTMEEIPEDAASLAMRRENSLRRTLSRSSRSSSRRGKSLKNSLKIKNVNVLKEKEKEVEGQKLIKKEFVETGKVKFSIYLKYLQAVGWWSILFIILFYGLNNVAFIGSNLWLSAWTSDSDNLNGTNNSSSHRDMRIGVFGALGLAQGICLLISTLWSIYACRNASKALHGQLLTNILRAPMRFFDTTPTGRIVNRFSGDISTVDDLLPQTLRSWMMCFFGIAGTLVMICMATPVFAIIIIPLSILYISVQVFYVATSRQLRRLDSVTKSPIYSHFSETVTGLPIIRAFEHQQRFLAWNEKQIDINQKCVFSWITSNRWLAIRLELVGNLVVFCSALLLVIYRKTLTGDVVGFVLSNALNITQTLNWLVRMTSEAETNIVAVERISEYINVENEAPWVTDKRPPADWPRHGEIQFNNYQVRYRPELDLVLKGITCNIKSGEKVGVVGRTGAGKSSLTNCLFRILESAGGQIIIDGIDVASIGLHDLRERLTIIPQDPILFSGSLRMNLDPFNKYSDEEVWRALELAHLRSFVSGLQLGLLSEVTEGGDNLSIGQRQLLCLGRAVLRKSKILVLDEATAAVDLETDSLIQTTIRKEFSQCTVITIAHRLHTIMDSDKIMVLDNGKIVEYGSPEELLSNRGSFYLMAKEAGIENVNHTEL

human MRP2 = details: cited from earlier work; for stimulation of CP-I transport in human MRP2 vesicles / effect on MRP2 when CP-I is used as probe substrate: result in words ref 10
Mrp2 [4] = target: T2, Mrp2 (Rattus norvegicus, UniProt Q63120); details: in vivo
T2 sequence (Q63120 whole entry): as above

Oatp = experiment: CP-I uptake in suspended rat hepatocytes with and without rifamycin SV; type: cell-based; details: rifamycin SV 1 mM, CP-I 0.5 µM, 37 °C, result in words
[5] = Plasma and liver concentrations of modulators after i.v. infusion in rats; type: in vivo; details: Sprague-Dawley, rat; for Kp at 3 h: liver at terminal time point (3 h); for Cmax: plasma, iv
in vitro = details: tissue homogenate
Mrp2 [6] = target: T2, Mrp2; experiment: Biliary and renal secretion of endogenous CP-I and CP-III in bile duct cannulated rats before and after modulators; details: for Bile Flow: cumulative volume / total collection time, mean ± SD, three animals; for Mrp2-mediated CP-I transport in vivo (biliary clearance, cumulative amount in bile) before and after treatment: bile duct cannulated rats
rat Mrp2 [7] = target: T1, rat Mrp2; details: for % Net decrease in ATP-dependent CP-I uptake in presence of bilirubin: bilirubin 10 µM, uptake with modulator alone as control, duplicate wells
Method: Figure 3 Effect of bilirubin on the transport of CP-I using rat Mrp2 vesicles in the presence and absence of modulators. Rat Mrp2 vesicles (50 µg/well) were preincubated with and without bilirubin (10 µM) and modulators for 3 min at 37 °C. % Net decrease in ATP-dependent CP-I uptake in presence of bilirubin was calculated by taking CP-I uptake values in presence of modulators as control. All data values presented as mean of single experiment performed in duplicate wells.

rat Mrp2 [8] = target: T1, rat Mrp2; details: for effect on rat Mrp2-mediated CP-I transport in vitro: 15 min, result in words
Method: Rat Mrp2-mediated CP-I transport was measured in inside-out membrane vesicles. Mrp2 vesicle protein (50 µg/well) were preincubated with modulators at above reported concentrations at 37 °C and reaction was started by adding CP-I (5 µM) and incubated for 15 min. NP; not performed. For more on experimental details refer to Section 2.3. Dotted line represents basal level (100%) of CP-I uptake in control wells in the presence of ATP with no modulators added. All data values presented as mean and SD of single experiment performed in triplicate wells.

[9] = rat, in vivo
[10] = tested on: flurbiprofen metabolism in liver microsome; set-up: method as in PMID 11457649, PMID 9521735; details: in presence of dapsone ref 22, 23; cited from earlier work
[11] = set-up: method as in PMID 11457649, PMID 9521735; details: humans, in presence of dapsone ref 22, 23; cited from earlier work
Mrp2 [12] = tested on: Mrp2; set-up: method as in PMID 19118132; details: cited from earlier work

Compound: CC1(C)S[C@@H]2[C@H](NC(=O)Cc3ccccc3)C(=O)N2[C@H]1C(=O)O [benzyl penicillin]
- transient enhancement of biliary clearance of glutathione (GSH) (Mrp2 [1]): about four-fold

Compound: CN(C)C(=N)N=C(N)N [metformin]
- increase of atorvastatin liver concentration (Mrp2 [2]): 1.64 fold

Compound: coproporphyrin-I [CP-I]
- Km (rat Mrp2 [3]): 15 ± 6 µM
- apparent Vmax (rat Mrp2 [3]; CP-I uptake, rat Mrp2 membrane vesicles, 37 °C, 15 min, mean ± SD): 161 ± 20 pmol/min/mg protein
- ATP over AMP ratio of CP-I uptake (rat Mrp2 [3]; rat Mrp2 membrane vesicles): 23
- Km (human MRP2): 7.7 µM
- average biliary clearance relative to CP-III (Mrp2 [4]): four-fold higher
- basal level excreted in rat bile in 2 h (Mrp2 [4]): about 600 pmoles

Compound: CO[C@H]1/C=C/O[C@@]2(C)Oc3c(C)c(O)c4c(O)c(cc(O)c4c3C2=O)NC(=O)/C(C)=C\C=C\[C@H](C)[C@H](O)[C@@H](C)[C@@H](O)[C@@H](C)[C@H](OC(C)=O)[C@@H]1C [rifamycin, rifamycin SV]
- effect on CP-I uptake in isolated rat hepatocytes (Oatp): rifamycin sensitive

Compound: O=C1c2c(O)ccc(O)c2C(=O)c2c(NCCNCCO)ccc(NCCNCCO)c21 [Mitoxantrone, Mitoxantrone hydrochloride]
- concentration at 3 h ([5]; intravenous, 6 mg/kg i.v., liver homogenate, LC-MS/MS, read-out: Liver Total Concentrations): 854 µM
- concentration at 3 h ([5]; intravenous, 15 mg/kg i.v., liver homogenate, LC-MS/MS, read-out: Liver Total Concentrations): 950 µM
- concentration at 3 h ([5]; liver (unbound), intravenous, 6 mg/kg i.v., Fu,liver x total liver concentration, read-out: Liver Unbound Concentrations): 0.26 µM
- Kp at 3 h ([5]; liver/plasma, intravenous, 6 mg/kg i.v., read-out: Liver to Plasma Ratio): 199
- Kp at 3 h ([5]; liver/plasma, intravenous, 15 mg/kg i.v., read-out: Liver to Plasma Ratio): 202
- Cmax ([5]; 6 mg/kg i.v.): 4.3 µM
- Cmax ([5]; 15 mg/kg i.v.): 4.7 µM
- fraction unbound at 6 h, 10 µM (in vitro): 0.0003
- Bile Flow (Mrp2 [6]; after mitoxantrone 6 mg/kg i.v.): 1.05 ± 0.11 mL/h
- Bile Flow (Mrp2 [6]; after mitoxantrone 15 mg/kg i.v.): 1.38 ± 0.56 mL/h
- Mrp2-mediated CP-I transport in vivo (biliary clearance, cumulative amount in bile) before and after treatment (Mrp2 [6]; result in words): no significant difference
- biliary excretion of CP-I and III (Mrp2 [6]; mitoxantrone 6 mg/kg, between 0.25 and 0.5 h, result in words): significant increase
- biliary secretion of CP-I (Mrp2 [6]; mitoxantrone 15 mg/kg, from 0.33 to 1.25 h, result in words): decreased
- % Net decrease in ATP-dependent CP-I uptake in presence of bilirubin (rat Mrp2 [7]; modulator 200 µM): 34% and 42%
- concentration from which in vitro stimulation started (rat Mrp2 [8]): ≥ 1 µM
- effect on rat Mrp2-mediated CP-I transport in vitro (rat Mrp2 [8]; CP-I 5 µM): strongest stimulator; also recorded: stimulated
- concentrations giving inhibition of Mrp2 mediated CP-I transport (rat Mrp2 [8]; bell-shaped curve, higher concentrations): > 250 µM
- concentrations giving stimulation of Mrp2 mediated CP-I transport (rat Mrp2 [8]; bell-shaped curve, lower concentrations): up to 250 µM
- toxicity limiting the dose [9]: observed toxicity
- stimulation of CP-I transport in human MRP2 vesicles (human MRP2): significant stimulation

Compound: Nc1ccc(S(=O)(=O)c2ccc(N)cc2)cc1 [dapsone]
- stimulation of flurbiprofen metabolism [10]: two-fold
- increase in flurbiprofen clearance [11]: 10%

Compound: C=CC1=C(C)/C(=C/c2[nH]c(Cc3[nH]c(/C=C4\NC(=O)C(C)=C4C=C)c(C)c3CCC(=O)O)c(CCC(=O)O)c2C)NC1=O [bilirubin]
- effect on in vitro stimulation of Mrp2-mediated CP-I transport (rat Mrp2 [7]; 10 µM, result in words): suppressed

Compound: COc1ccc2c(c1)c(CC(=O)O)c(C)n2C(=O)c1ccc(Cl)cc1 [indomethacin]
- decrease of E17βG half-life (Mrp2 [12]; rats ref 16): 40%
- effect on E17βG biliary clearance (Mrp2 [12]; rats, result in words ref 16): increases
- effect on MRP2 when CP-I is used as probe substrate (human MRP2): inhibitors

Compound: coproporphyrin-III [CP-III]
- urinary clearance relative to CP-I (Mrp2 [6]; control experiments): three-fold higher
- basal level excreted in rat bile in 2 h (Mrp2 [6]; endogenous, no modulator): ~1200 pmol
- plasma AUC (0–2 h), basal (Mrp2 [6]; endogenous, no modulator): ~9.5 nM·h
- basal plasma levels relative to CP-I (Mrp2 [6]; rats): three-four times higher

Compound: CCc1oc2ccccc2c1C(=O)c1cc(Br)c(O)c(Br)c1 [benzbromarone]
- effect on MRP2 when CP-I is used as probe substrate (human MRP2): inhibitors

Compound: CC(=O)[C@H]1CC[C@H]2[C@@H]3CCC4=CC(=O)CC[C@]4(C)[C@H]3CC[C@]12C [Progesterone, progesterone]
- concentration at 2 h ([5]; intravenous, 1 mg/kg i.v., liver homogenate, LC-MS/MS, read-out: Liver Total Concentrations): 197 µM
- concentration at 2 h ([5]; liver (unbound), intravenous, 1 mg/kg i.v., Fu,liver x total liver concentration, read-out: Liver Unbound Concentrations): 1.86 µM
- Kp at 2 h ([5]; liver/plasma, intravenous, 1 mg/kg i.v., liver at terminal time point (2 h), read-out: Liver to Plasma Ratio): 1.2
- Cmax ([5]; 1 mg/kg i.v.): 165 µM
- fraction unbound at 6 h, 10 µM (in vitro): 0.0094
- Bile Flow (Mrp2 [6]; after progesterone 1 mg/kg i.v.): 1.62 ± 0.39 mL/h
- Mrp2-mediated CP-I transport in vivo (biliary clearance, cumulative amount in bile) before and after treatment (Mrp2 [6]; result in words): did not stimulate
- biliary secretion of CP-III (Mrp2 [6]; progesterone 1 mg/kg, from 0.17 to 1.5 h, result in words): significant decrease
- % Net decrease in ATP-dependent CP-I uptake in presence of bilirubin (rat Mrp2 [7]; modulator 100 µM): 17% and 12%
- effect on rat Mrp2-mediated CP-I transport in vitro (rat Mrp2 [8]; CP-I 5 µM): stimulated
- stimulation of Mrp2 mediated transport of CP-I (rat Mrp2 [8]; modulator 1 µM, CP-I 5 µM): > 1.5 fold
- stimulation of CP-I transport in human MRP2 vesicles (human MRP2): significant stimulation
